The structures appear in SMILES notation.

In this assay the target is GDP-bound protein (aa 1-169), containing both G12C and C118A amino acid substitutions (Homo sapiens, UniProt P01116, C118A/G12C). The assay is described as follows: Coupled Nucleotide Exchange Assay (SOS-mediated nucleotide exchange, AlphaScreen). It is filed as biochemical. The settings on record: 2 hours compound pre-incubation. As for the experimental part: Coupled Nucleotide Exchange Assay: Purified GDP-bound […] protein (aa 1-169), containing both G12C and C118A amino acid substitutions and an N-terminal His-tag, was pre-incubated with a compound dose-response titration for 2 hours in assay buffer (25 mM HEPES pH 7.4, 10 mM MgCl2, and 0.01% Triton X-100). Following compound pre-incubation, purified SOS protein (aa 564-1049) and GTP (Roche 10106399001) were added to the assay wells and incubated for an additional hour. […] The assay plates were then read on a PerkinElmer EnVision Multilabel Reader, using AlphaScreen® technology, and data were analyzed using a 4-parameter logistic model to calculate IC50 values.
Chain of GDP-bound protein (aa 1-169), containing both G12C and C118A amino acid substitutions (P01116 1-169 isoform P01116-2 G12C/C118A): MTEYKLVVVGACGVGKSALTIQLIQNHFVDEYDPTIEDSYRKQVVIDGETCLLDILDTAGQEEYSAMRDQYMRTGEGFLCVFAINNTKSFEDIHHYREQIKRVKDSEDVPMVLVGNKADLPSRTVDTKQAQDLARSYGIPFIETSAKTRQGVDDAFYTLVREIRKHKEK
With `C=CC(=O)N1CCC[C@@H](Nc2snc3c(F)c(-c4cc(O)cc5ccccc45)c(Cl)cc23)C1` [Example 4-9, 1-((3R)-3-((5-chloro-7-fluoro-6-(3-hydroxynaphthalen-1-yl)benzo[c]isothiazol-3-yl)amino)piperidin-1-yl)prop-2-en-1-one], the “Coupled exchange IC50” value was >250 µM. As for `C=CC(=O)N1CCN(c2nnc(-c3ccccc3)c3cc(Cl)c(-c4c(O)cccc4F)cc23)CC1` [Example 31, 2-(4-(4-acryloyl-1-piperazinyl)-7-chloro-1-phenyl-6-phthalazinyl)-3-fluorophenol], the “Coupled exchange IC50” value amounted to 123 µM. For the compound `C=CC(=O)N1CCN(c2snc3c(F)c(-c4cc(OC)cc5cnn(C)c45)c(Cl)cc23)CC1` [Example 19-1, 1-(4-(5-chloro-7-fluoro-6-(5-methoxy-1-methyl-1H-indazol-7-yl)-2,1-benzothiazol-3-yl)-1-piperazinyl)-2-propen-1-one], the “Coupled exchange IC50” value amounted to 15.2 µM. For the compound `C=CC(=O)N1CCN(c2nnc(Cc3ccccc3)c3cc(Cl)c(Cl)cc23)CC1` [Example 34, 1-(4-Acryloyl-1-piperazinyl)-4-benzyl-6,7-dichlorophthalazine], the “Coupled exchange IC50” value turned out to be 34.2 µM. Consider `C=CC(=O)NC1(C)CN(c2snc3c(F)c(-c4cc(O)cc5ccccc45)c(Cl)cc23)C1` [Example 5-2, N-(1-(5-chloro-7-fluoro-6-(3-hydroxy-1-naphthalenyl)-2,1-benzothiazol-3yl)-3-methyl-3-azetidinyl)-2-propenamide], for which the “Coupled exchange IC50” value worked out at 14.2 µM.

For `C=CC(=O)N1CCN(c2nnc(N3CCCCC3)c3cc(-c4c(O)cccc4F)c(Cl)cc23)CC1` [Example 15, 1-(4-(7-Chloro-6-(2-fluoro-6-hydroxyphenyl)-4-(1-piperidinyl)-1-phthalazinyl)-1-piperazinyl)-2-propen-1-one], the “Coupled exchange IC50” value was 2.56 µM.

For `C=C(CO)C(=O)N1CCN(c2snc3c(F)c(-c4cc(O)cc5ccccc45)c(Cl)cc23)CC1` [Example 18-3, 1-(4-(5-chloro-7-fluoro-6-(3-hydroxy-1-naphthalenyl)-2,1-benzothiazol-3-yl)-1-piperazinyl)-2-(hydroxymethyl)-2-propen-1-one], the “Coupled exchange IC50” value was 24.6 µM. For the compound `C=CC(=O)N1CCN(c2snc3c(F)c(-c4cc(O)cc5ncccc45)c(Cl)cc23)CC1` [Example 21, 1-(4-(5-chloro-7-fluoro-6-(7-hydroxy-5-quinolinyl)-2,1-benzothiazol-3-yl)-1-piperazinyl)-2-propen-1-one], the “Coupled exchange IC50” value is 9.41 µM.

Turning to `C=CC(=O)N1CCN(c2snc3c(F)c(-c4cccc5[nH]c(=O)ccc45)c(Cl)cc23)CC1` [Example 3-4, 5-(5-chloro-7-fluoro-3-(4-(2-propenoyl)-1-piperazinyl)-2,1-benzothiazol-6-yl)-2(1H)-quinolinone], the “Coupled exchange IC50” value is >250 µM.

Consider `C=CC(=O)N1CCN(c2nnc(-c3ccccc3C)c3cc(-c4c(O)cccc4F)c(Cl)cc23)CC1` [Example 10-1, 1-(4-(7-Chloro-6-(2-fluoro-6-hydroxyphenyl)-4-(2-methylphenyl)-1-phthalazinyl)-1-piperazinyl)-2-propen-1-one], for which the “Coupled exchange IC50” value was 24.5 µM. With `C=CC(=O)NC1CN(c2snc3c(F)c(Br)c(Cl)cc23)C1` [Example 4-4, N-(1-(6-bromo-5-chloro-7-fluoro-2,1-benzothiazol-3-yl)-3-azetidinyl)-2-propenamide], the “Coupled exchange IC50” value is >250 µM. The result for `C=CC(=O)N1[C@@H]2CC[C@H]1CN(c1snc3c(F)c(-c4cc(O)cc5ccccc45)c(Cl)cc13)C2` [Example 1-17, 1-((1R,5S)-3-(5-chloro-7-fluoro-6-(3-hydroxy-1-naphthalenyl)-2,1-benzothiazol-3-yl)-3,8-diazabicyclo[3.2.1]octan-8-yl)-2-propen-1-one] reads 63.5 µM.

Values taken from patent US11285135B2 (AMGEN INC., priority 2016, dated 2022).
